Test results from paper PMC10892984, “Novel Antineoplastic Inducers of Mitochondrial Apoptosis in Human Cancer Cells” (Molecules, 2024).

How the values were obtained:
MALME-3M = settings: 48 h
HS 578T = settings: 48 h
T-47D = settings: 48 h
[1] = Homo sapiens, 48 h, read-out: LC50

`COc1cc2c(c(OC)c1OC)-c1ccc(NNC(N)=S)c(=O)cc1C(NC(C)=O)CC2` [Compound 2, N-[(aS,7S)-10-(2-carbamothioylhydrazinyl)-1,2,3-trimethoxy-9-oxo-5,6,7,9-tetrahydrobenzo[a]heptalen-7-yl]acetamide monohydrate × ⅔ (ethyl acetate)] gave a GI50 (CCRF-CEM; Homo sapiens, 48 h) of 0.422 µM, a CC50 (CCRF-CEM; [1]) greater than 100 µM and a TGI (CCRF-CEM; leukemia, mutant p53, 48 h) greater than 100 µM. It also gave a GI50 (MOLT-4; Homo sapiens, MOLT-4, 48 h) of 0.548 µM, a CC50 (MOLT-4; Homo sapiens, MOLT-4, 48 h, read-out: LC50) greater than 100 µM and a TGI (MOLT-4; MOLT-4, leukemia, mutant p53, 48 h) greater than 100 µM. The TGI (A549; A549, non-small-cell lung cancer, wild-type p53, 48 h) was greater than 100 µM, the GI50 (A549; Homo sapiens, A549, 48 h) was 3.23 µM and the CC50 (A549; Homo sapiens, A549, 48 h, read-out: LC50) was greater than 100 µM. The TGI (HOP-62; HOP-62, non-small-cell lung cancer, mutant p53, 48 h) was greater than 100 µM, the GI50 (HOP-62; Homo sapiens, HOP-62, 48 h) was 0.7 µM and the CC50 (HOP-62; Homo sapiens, HOP-62, 48 h, read-out: LC50) was greater than 100 µM. The GI50 (NCI-H226; Homo sapiens, NCI-H226, 48 h) was 1.74 µM, the CC50 (NCI-H226; Homo sapiens, NCI-H226, 48 h, read-out: LC50) was greater than 100 µM and the TGI (NCI-H226; NCI-H226, non-small-cell lung cancer, p53 Lit. inconclusive, 48 h) was greater than 100 µM. For the same molecule, the GI50 (NCI-H460; Homo sapiens, NCI-H460, 48 h) was 0.429 µM, the CC50 (NCI-H460; Homo sapiens, NCI-H460, 48 h, read-out: LC50) was greater than 100 µM and the TGI (NCI-H460; NCI-H460, non-small-cell lung cancer, wild-type p53, 48 h) was greater than 100 µM. The GI50 (NCI-H522; Homo sapiens, NCI-H522, 48 h) was 0.55 µM, the CC50 (NCI-H522; Homo sapiens, NCI-H522, 48 h, read-out: LC50) was greater than 100 µM and the TGI (NCI-H522; NCI-H522, non-small-cell lung cancer, mutant p53, 48 h) was greater than 100 µM. The TGI (HCT-116; HCT-116, colon cancer, wild-type p53, 48 h) was 10.6 µM, the GI50 (HCT-116; Homo sapiens, HCT-116, 48 h) was 0.377 µM and the CC50 (HCT-116; Homo sapiens, HCT-116, 48 h, read-out: LC50) was greater than 100 µM. The GI50 (KM-12; Homo sapiens, KM12, 48 h) was 0.255 µM, the CC50 (KM-12; Homo sapiens, KM12, 48 h, read-out: LC50) was greater than 100 µM and the TGI (KM-12; KM-12, colon cancer, mutant p53, 48 h) was 0.801 µM. The GI50 (SF-539; Homo sapiens, SF-539, 48 h) was 0.418 µM, the CC50 (SF-539; Homo sapiens, SF-539, 48 h, read-out: LC50) was greater than 100 µM and the TGI (SF-539; SF-539, CNS cancer (brain tumor), mutant p53, 48 h) was 20.5 µM. The GI50 (LOX IMVI; Homo sapiens, 48 h) was 0.71 µM, the CC50 (LOX IMVI; [1]) was greater than 100 µM and the TGI (LOX IMVI; melanoma, wild-type p53, 48 h) was greater than 100 µM. For the same molecule, the GI50 (MALME-3M; Homo sapiens, Malme-3M) was 0.394 µM, the CC50 (MALME-3M; Homo sapiens, Malme-3M, read-out: LC50) was greater than 100 µM and the TGI (MALME-3M; MALME-3M, melanoma, wild-type p53) was greater than 100 µM. The GI50 (M14; Homo sapiens, M14, 48 h) was 0.284 µM, the CC50 (M14; Homo sapiens, M14, 48 h, read-out: LC50) was greater than 100 µM and the TGI (M14; M14, melanoma, mutant p53, 48 h) was 0.735 µM. The GI50 (MDA-MB-435; Homo sapiens, MDA-MB-435, 48 h) was 0.233 µM, the CC50 (MDA-MB-435; Homo sapiens, MDA-MB-435, 48 h, read-out: LC50) was greater than 100 µM and the TGI (MDA-MB-435; MDA-MB-435, melanoma, mutant p53, 48 h) was 0.838 µM. The CC50 (SK-MEL-28; Homo sapiens, SK-MEL-28, 48 h, read-out: LC50) was greater than 100 µM, the TGI (SK-MEL-28; SK-MEL-28, melanoma, mutant p53, 48 h) was greater than 100 µM and the GI50 (UACC-62; Homo sapiens, UACC-62, 48 h) was 0.625 µM. It also gave a CC50 (UACC-62; Homo sapiens, UACC-62, 48 h, read-out: LC50) greater than 100 µM, a TGI (UACC-62; UACC-62, melanoma, wild-type p53, 48 h) greater than 100 µM and a GI50 (IGROV1; Homo sapiens, IGROV-1, 48 h) of 1.18 µM. The CC50 (IGROV1; Homo sapiens, IGROV-1, 48 h, read-out: LC50) was greater than 100 µM, the TGI (IGROV1; IGROV1, ovarian cancer, mutant p53, 48 h) was greater than 100 µM and the GI50 (OVCAR-5; Homo sapiens, OVCAR-5, 48 h) was 9.67 µM. For the same molecule, the CC50 (OVCAR-5; Homo sapiens, OVCAR-5, 48 h, read-out: LC50) was greater than 100 µM, the TGI (OVCAR-5; OVCAR-5, ovarian cancer, p53 Lit. inconclusive, 48 h) was greater than 100 µM and the GI50 (OVCAR-8; Homo sapiens, OVCAR-8, 48 h) was 0.97 µM. The CC50 (OVCAR-8; Homo sapiens, OVCAR-8, 48 h, read-out: LC50) was greater than 100 µM, the TGI (OVCAR-8; OVCAR-8, ovarian cancer, mutant p53, 48 h) was greater than 100 µM and the TGI (786-0; 786-0, renal cancer, mutant p53, 48 h) was greater than 100 µM. For the same molecule, the GI50 (786-0; Homo sapiens, 786-0, 48 h) was 0.818 µM, the CC50 (786-0; Homo sapiens, 786-0, 48 h, read-out: LC50) was greater than 100 µM and the TGI (CAKI-1; CAKI-1, renal cancer, wild-type p53, 48 h) was greater than 100 µM. The GI50 (CAKI-1; Homo sapiens, CAKI-1, 48 h) was 7.12 µM, the CC50 (CAKI-1; Homo sapiens, CAKI-1, 48 h, read-out: LC50) was greater than 100 µM and the GI50 (RXF 393; Homo sapiens, RXF 393, 48 h) was 0.298 µM. It also gave a CC50 (RXF 393; Homo sapiens, RXF 393, 48 h, read-out: LC50) greater than 100 µM, a TGI (RXF 393; RXF 393, renal cancer, mutant p53, 48 h) of 0.747 µM and a GI50 (TK-10; Homo sapiens, TK-10, 48 h) of 6.77 µM. For the same molecule, the CC50 (TK-10; Homo sapiens, TK-10, 48 h, read-out: LC50) was greater than 100 µM, the TGI (TK-10; TK-10, renal cancer, mutant p53, 48 h) was greater than 100 µM and the GI50 (PC-3; Homo sapiens, PC-3, 48 h) was 0.255 µM. For the same molecule, the CC50 (PC-3; Homo sapiens, PC-3, 48 h, read-out: LC50) was greater than 100 µM, the TGI (PC-3; PC-3, prostate cancer, mutant p53 (null p53 protein), 48 h) was greater than 100 µM and the GI50 (MDA-MB-231; Homo sapiens, MDA-MB-231, 48 h) was 0.359 µM. For the same molecule, the CC50 (MDA-MB-231; Homo sapiens, MDA-MB-231, 48 h, read-out: LC50) was greater than 100 µM, the TGI (MDA-MB-231; MDA-MB-231, breast cancer, mutant p53, 48 h) was 1.88 µM and the TGI (HS 578T; HS 578T, breast cancer, mutant p53) was greater than 100 µM. For the same molecule, the GI50 (HS 578T; Homo sapiens, Hs-578T) was greater than 100 µM, the CC50 (HS 578T; Homo sapiens, Hs-578T, read-out: LC50) was greater than 100 µM and the GI50 (T-47D; Homo sapiens, T47D) was greater than 100 µM. The CC50 (T-47D; Homo sapiens, T47D, read-out: LC50) was greater than 100 µM and the TGI (T-47D; T-47D, breast cancer, mutant p53) was greater than 100 µM.
